Assay results: EP2818471A1, “Nitrogen bicyclic compounds as inhibitors for Scyl1 and Grk5” (Max-Planck-Gesellschaft zur Förderung der Wissenschaften …, priority 2013, dated 2014)

The compounds below were run on beta-TC6 cells (assay: Insulin HTRF assay, relative activity Ar normalized to sunitinib). Conditions: Mus musculus, normalized to positive control sunitinib (5 µM = 100%), Table 10.
Type: cell-based
Method in brief: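 Relative activity Ar was scaled between 0% and 100% controls, with sunitinib at 5 µM f.c. as reference. Insulin released by beta-TC6 cells was quantified by sandwich HTRF (Eu-cryptate/XL665 antibodies, 120 min RT). Cells had been seeded 24 or 48 h, then treated 2–4 h at 37°C in induction buffer, 0.5% DMSO.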

Row | SMILES | Emax [%]
1 | CSc1ccc(-c2cn3c(-c4cccc(CO)c4)cnc3cn2)cc1 [compound 377, [3-[6-(4-methylsulfanylphenyl)imidazo[1,2-a]pyrazin-3-yl]phenyl]methanol] | 20 to 50
2 | CCOc1cccc(-c2cn3c(-c4cccc(CO)c4)cnc3cn2)c1 [compound 378, [3-[6-(3-ethoxyphenyl)imidazo[1,2-a]pyrazin-3-yl]phenyl]methanol] | 20 to 50
3 | OCc1cccc(-c2cnc3cnc(-c4cccs4)cn23)c1 [compound 379, [3-[6-(2-thienyl)imidazo[1,2-a]pyrazin-3-yl]phenyl]methanol] | 20 to 50
4 | CC(C)Oc1cccc(-c2cn3c(-c4cccc(CO)c4)cnc3cn2)c1 [compound 380, [3-[6-(3-isopropoxyphenyl)imidazo[1,2-a]pyrazin-3-yl]phenyl]methanol] | 20 to 50
5 | COc1ccc(-c2cnc3cnc(-c4ccc(N5CCN(C)CC5)cc4)cn23)cn1 [compound 381, 3-(6-methoxy-3-pyridyl)-6-[4-(4-methylpiperazin-1-yl)phenyl]imidazo[1,2-a]pyrazine] | 20 to 50
6 | COc1ccc(-c2cn3c(-c4ccc(OC)nc4)cnc3cn2)cn1 [compound 382, 3,6-bis(6-methoxy-3-pyridyl)imidazo[1,2-a]pyrazine] | 20 to 50
7 | COc1ccc(-c2cnc3cnc(-c4cccc(C(N)=O)c4)cn23)cn1 [compound 383, 3-[3-(6-methoxy-3-pyridyl)imidazo[1,2-a]pyrazin-6-yl]benzamide] | 20 to 50
8 | Nc1cccc(-c2cn3c(-c4cccc(F)c4)cnc3cn2)c1 [compound 384, 3-[3-(3-fluorophenyl)imidazo[1,2-a]pyrazin-6-yl]aniline] | 20 to 50
9 | Fc1cccc(-c2cnc3cnc(-c4ccccc4)cn23)c1 [compound 385, 3-(3-fluorophenyl)-6-phenyl-imidazo[1,2-a]pyrazine] | 20 to 50
10 | Fc1cccc(-c2cnc3cnc(-c4ccc5c(c4)OCO5)cn23)c1 [compound 386, 6-(1,3-benzodioxol-5-yl)-3-(3-fluorophenyl)imidazo[1,2-a]pyrazine] | 20 to 50
11 | Fc1cccc(-c2cnc3cnc(-c4ccc(N5CCNCC5)cc4)cn23)c1 [compound 387, 3-(3-fluorophenyl)-6-(4-piperazin-1-ylphenyl)imidazo[1,2-a]pyrazine] | 10 to 20
12 | Fc1cccc(-c2cnc3cnc(-c4ccc(Cl)cc4)cn23)c1 [compound 388, 6-(4-chlorophenyl)-3-(3-fluorophenyl)imidazo[1,2-a]pyrazine] | 20 to 50
13 | OCc1ccc(-c2cn3c(-c4cccc(F)c4)cnc3cn2)cc1 [compound 389, [4-[3-(3-fluorophenyl)imidazo[1,2-a]pyrazin-6-yl]phenyl]methanol] | 20 to 50
14 | Fc1cccc(-c2cnc3cnc(-c4cccs4)cn23)c1 [compound 390, 3-(3-fluorophenyl)-6-(2-thienyl)imidazo[1,2-a]pyrazine] | 20 to 50
15 | COc1cc(-c2cnc3cnc(-c4ccc(OCCCN(C)C)nc4)cn23)ccc1O [compound 391, 4-[6-[6-[3-(dimethylamino)propoxy]-3-pyridyl]imidazo[1,2-a]pyrazin-3-yl]-2-methoxy-phenol] | 20 to 50
16 | COc1cc(-c2cnc3cnc(-c4ccc(NCCN5CCOCC5)nc4)cn23)ccc1O [compound 392, 2-methoxy-4-[6-[6-(2-morpholinoethylamino)-3-pyridyl]imidazo[1,2-a]pyrazin-3-yl]phenol] | 20 to 50
17 | COc1cc(-c2cnc3cnc(-c4ccc(N5CCN(C)CC5)nc4)cn23)ccc1O [compound 393, 2-methoxy-4-[6-[6-(4-methylpiperazin-1-yl)-3-pyridyl]imidazo[1,2-a]pyrazin-3-yl]phenol] | 20 to 50
18 | COc1cc(-c2cnc3cnc(-c4ccc5c(c4)OCO5)cn23)ccc1O [compound 394, 4-[6-(1,3-benzodioxol-5-yl)imidazo[1,2-a]pyrazin-3-yl]-2-methoxy-phenol] | 20 to 50
19 | CCOc1cccc(-c2cn3c(-c4ccc(O)c(OC)c4)cnc3cn2)c1 [compound 395, 4-[6-(3-ethoxyphenyl)imidazo[1,2-a]pyrazin-3-yl]-2-methoxy-phenol] | 50 to 100
20 | COc1cc(-c2cnc3cnc(-c4ccc(N)nc4)cn23)ccc1O [compound 396, 4-[6-(6-amino-3-pyridyl)imidazo[1,2-a]pyrazin-3-yl]-2-methoxy-phenol] | 20 to 50
21 | COc1cc(-c2cnc3cnc(-c4cnn(C)c4)cn23)ccc1O [compound 397, 2-methoxy-4-[6-(1-methylpyrazol-4-yl)imidazo[1,2-a]pyrazin-3-yl]phenol] | 50 to 100
22 | CN(C)CCCNC(=O)c1ccc(-c2cn3c(-c4ccc5c(ccn5C)c4)cnc3cn2)cc1 [compound 398, N-[3-(dimethylamino)propyl]-4-[3-(1-methylindol-5-yl)imidazo[1,2-a]pyrazin-6-yl]benzamide] | 20 to 50
23 | Cn1ccc2cc(-c3cnc4cnc(-c5cccc(C(=O)NCCO)c5)cn34)ccc21 [compound 399, N-(2-hydroxyethyl)-3-[3-(1-methylindol-5-yl)imidazo[1,2-a]pyrazin-6-yl]benzamide] | 20 to 50
24 | COc1cc(-c2cn3c(-c4ccc5c(ccn5C)c4)cnc3cn2)ccc1O [compound 400, 2-methoxy-4-[3-(1-methylindol-5-yl)imidazo[1,2-a]pyrazin-6-yl]phenol] | 20 to 50

Row | SMILES | Emax [%]
25 | Cn1ccc2cc(-c3cnc4cnc(-c5cccc(C(N)=O)c5)cn34)ccc21 [compound 401, 3-[3-(1-methylindol-5-yl)imidazo[1,2-a]pyrazin-6-yl]benzamide] | 20 to 50
26 | CN1CCN(C(=O)c2ccc(-c3cnc4cnc(/C=C/c5ccccc5)cn34)cc2)CC1 [compound 402, (4-methylpiperazin-1-yl)-[4-[6-[(E)-styryl]imidazo[1,2-a]pyrazin-3-yl]phenyl]methanone] | 10 to 20
27 | CS(=O)(=O)Nc1cccc(-c2cn3c(-c4ccc(Oc5ccccc5)cc4)cnc3cn2)c1 [compound 403, N-[3-[3-(4-phenoxyphenyl)imidazo[1,2-a]pyrazin-6-yl]phenyl]methanesulfonamide] | 20 to 50
28 | Cc1ccccc1-c1cnc2cnc(-c3cccc(F)c3)cn12 [compound 404, 6-(3-fluorophenyl)-3-(o-tolyl)imidazo[1,2-a]pyrazine] | 10 to 20
29 | Cc1ccccc1-c1cnc2cnc(-c3cccs3)cn12 [compound 405, 3-(o-tolyl)-6-(2-thienyl)imidazo[1,2-a]pyrazine] | 10 to 20
30 | COc1cc(-c2cn3c(-c4ccccc4Cl)cnc3cn2)ccc1O [compound 406, 4-[3-(2-chlorophenyl)imidazo[1,2-a]pyrazin-6-yl]-2-methoxy-phenol] | 20 to 50
31 | CC(C)(C)c1ccc(-c2cnc3cnc(-c4ccc(N)nc4)cn23)cc1 [compound 408, 5-[3-(4-tert-butylphenyl)imidazo[1,2-a]pyrazin-6-yl]pyridin-2-amine] | 10 to 20
32 | CC(=O)c1cccc(-c2cnc3cnc(-c4cccnc4)cn23)c1 [compound 409, 1-[3-[6-(3-pyridyl)imidazo[1,2-a]pyrazin-3-yl]phenyl]ethanone] | 20 to 50
33 | CC(=O)c1cccc(-c2cnc3cnc(-c4cccc(F)c4)cn23)c1 [compound 410, 1-[3-[6-(3-fluorophenyl)imidazo[1,2-a]pyrazin-3-yl]phenyl]ethanone] | 20 to 50
34 | CC(=O)c1cccc(-c2cnc3cnc(-c4ccc(C(=O)NCCN(C)C)cc4)cn23)c1 [compound 411, 4-[3-(3-acetylphenyl)imidazo[1,2-a]pyrazin-6-yl]-N-(2-dimethylaminoethyl)benzamide] | 20 to 50
35 | CN(C)c1ccccc1-c1cn2c(-c3cccs3)cnc2cn1 [compound 413, N,N-dimethyl-2-[3-(2-thienyl)imidazo[1,2-a]pyrazin-6-yl]aniline] | 20 to 50
36 | c1csc(-c2cnc3cnc(-c4ccncc4)cn23)c1 [compound 414, 6-(4-pyridyl)-3-(2-thienyl)imidazo[1,2-a]pyrazine] | 20 to 50
37 | c1csc(-c2cnc3cnc(-c4ccsc4)cn23)c1 [compound 415, 3-(2-thienyl)-6-(3-thienyl)imidazo[1,2-a]pyrazine] | 50 to 100
38 | c1csc(-c2cnc3cnc(-c4cc5ccccc5s4)cn23)c1 [compound 416, 6-(benzothiophen-2-yl)-3-(2-thienyl)imidazo[1,2-a]pyrazine] | 50 to 100
39 | Oc1ccc(-c2cn3c(-c4cccs4)cnc3cn2)cc1 [compound 417, 4-[3-(2-thienyl)imidazo[1,2-a]pyrazin-6-yl]phenol] | 50 to 100
40 | FC(F)(F)Oc1ccc(-c2cn3c(-c4cccs4)cnc3cn2)cc1 [compound 418, 3-(2-thienyl)-6-[4-(trifluoromethoxy)phenyl]imidazo[1,2-a]pyrazine] | 20 to 50
41 | C(=C\c1cn2c(-c3cccs3)cnc2cn1)/c1ccccc1 [compound 419, 6-[(E)-styryl]-3-(2-thienyl)imidazo[1,2-a]pyrazine] | 20 to 50
42 | O=C(NCCO)c1cccc(-c2cn3c(-c4cccs4)cnc3cn2)c1 [compound 420, N-(2-hydroxyethyl)-3-[3-(2-thienyl)imidazo[1,2-a]pyrazin-6-yl]benzamide] | 20 to 50
43 | Clc1cccc(-c2cn3c(-c4cccs4)cnc3cn2)c1 [compound 421, 6-(3-chlorophenyl)-3-(2-thienyl)imidazo[1,2-a]pyrazine] | 20 to 50
44 | OCc1ccc(-c2cn3c(-c4cccs4)cnc3cn2)cc1 [compound 422, [4-[3-(2-thienyl)imidazo[1,2-a]pyrazin-6-yl]phenyl]methanol] | 20 to 50
45 | O=C(NCCO)c1ccc(-c2cn3c(-c4cccs4)cnc3cn2)cc1 [compound 423, N-(2-hydroxyethyl)-4-[3-(2-thienyl)imidazo[1,2-a]pyrazin-6-yl]benzamide] | 10 to 20
46 | c1csc(-c2cn3c(-c4cccs4)cnc3cn2)c1 [compound 424, 3,6-bis(2-thienyl)imidazo[1,2-a]pyrazine] | 50 to 100
47 | CS(=O)(=O)Nc1cccc(-c2cn3c(-c4cccs4)cnc3cn2)c1 [compound 425, N-[3-[3-(2-thienyl)imidazo[1,2-a]pyrazin-6-yl]phenyl]methanesulfonamide] | 20 to 50
